Source: ChEMBL document CHEMBL1667805, “Synthesis of new C5-(1-substituted-1,2,3-triazol-4 or 5-yl)-2'-deoxyuridines and their antiviral evaluation” (Eur J Med Chem, 2011)
The source made the active and inactive calls. The calls are words filed in the database; no cut-off is given here.

Assays:
Human alphaherpesvirus 3 [1] = test: microbe, parasite or virus in culture; details: Human alphaherpesvirus 3, 07-1, HEL
Influenza A virus [2] = type: functional, organism-based; details: H3N2, MDCK
[3] = system: Human immunodeficiency virus 2; test: Antiviral activity against HIV2 ROD infected in human […] cells assessed as virus-induced CEM giant cell formation after 4 days; type: functional, organism-based; details: ISOLATE ROD
L1210 = test: cells; details: Mus musculus, L1210, 48 h
[4] = system: Vesicular stomatitis virus; type: functional, organism-based; details: HeLa
Sindbis virus = type: functional, organism-based; details: Vero
Human respirovirus 3 = type: functional, organism-based; details: Vero
in vitro = details: human, HEL cells
Human alphaherpesvirus 1 [5] = test: microbe, parasite or virus in culture; details: Human alphaherpesvirus 1, KOS, HEL
[6] = system: Human immunodeficiency virus 1; test: Antiviral activity against HIV1 3B infected in human […] cells assessed as virus-induced CEM giant cell formation after 4 days; type: functional, organism-based
Human alphaherpesvirus 1 [7] = test: microbe, parasite or virus in culture; details: Human alphaherpesvirus 1, KOS, HEL; remark: listed apart in the source
HeLa = test: cells; details: Homo sapiens, 96 h
Influenza A virus [8] = type: functional, organism-based; details: H1N1, MDCK
Punta Toro virus = type: functional, organism-based; details: Vero
[9] = system: Vesicular stomatitis virus; type: functional, organism-based; details: MDCK
Human alphaherpesvirus 3 [10] = test: microbe, parasite or virus in culture; details: Human alphaherpesvirus 3, strain Oka vaccine, HEL
Coxsackievirus B4 = type: functional, organism-based; details: HeLa
Influenza B virus = type: functional, organism-based; details: MDCK
Human betaherpesvirus 5 [11] = test: microbe, parasite or virus in culture; details: Human betaherpesvirus 5, Davis, HEL
Vaccinia virus = test: microbe, parasite or virus in culture; details: Orthopoxvirus vaccinia, HEL
Human alphaherpesvirus 2 = test: microbe, parasite or virus in culture; details: Human alphaherpesvirus 2, strain G, HEL
CCRF-CEM = test: cells; details: Homo sapiens, 72 h
Human betaherpesvirus 5 [12] = test: microbe, parasite or virus in culture; details: Human betaherpesvirus 5, AD169, HEL
[13] = system: Mammalian orthoreovirus 1; type: functional, organism-based; details: Vero

Compound | EC50 (Human alphaherpesvirus 3 [1]) | inhibition (Influenza A virus [2]) | inhibition [3] | IC50 (L1210) | inhibition [4] | inhibition (Sindbis virus) | inhibition (Human respirovirus 3) | CC50 at 72 h (in vitro) | MCC at 72 h (in vitro) | EC50 (Human alphaherpesvirus 1 [5]) | inhibition [6] | EC50 (Human alphaherpesvirus 1 [7]) | IC50 (HeLa) | inhibition (Influenza A virus [8]) | inhibition (Punta Toro virus) | inhibition [9] | EC50 (Human alphaherpesvirus 3 [10]) | inhibition (Coxsackievirus B4) | inhibition (Influenza B virus) | EC50 (Human betaherpesvirus 5 [11]) | further results
CC(C)(C)c1ccc(-n2cc(-c3cn([C@H]4C[C@H](O)[C@@H](CO)O4)c(=O)[nH]c3=O)nn2)cc1 | 35 µM | inactive | inactive | 15 µM | inactive | inactive | inactive | 12.4 µM | 230 µM | > 50 µM | inactive | > 50 µM | 9 µM | inactive | inactive | inactive | 7.7 µM | inactive | inactive | > 50 µM | EC50 (Vaccinia virus): 37 µM; EC50 (Human alphaherpesvirus 2): > 50 µM; IC50 (CCRF-CEM): 11 µM; EC50 (Human betaherpesvirus 5 [12]): > 50 µM; inhibition [13]: inactive
CSc1ccc(-n2cc(-c3cn([C@H]4C[C@H](O)[C@@H](CO)O4)c(=O)[nH]c3=O)nn2)cc1 | > 50 µM | inactive | inactive | 62 µM | inactive | inactive | inactive | 27 µM | > 230 µM | > 50 µM | inactive | > 50 µM | 23 µM | inactive | inactive | inactive | 27 µM | inactive | inactive | > 50 µM | EC50 (Vaccinia virus): > 50 µM; EC50 (Human alphaherpesvirus 2): > 50 µM; IC50 (CCRF-CEM): 50 µM; EC50 (Human betaherpesvirus 5 [12]): > 50 µM; inhibition [13]: inactive
O=c1[nH]c(=O)n([C@H]2C[C@H](O)[C@@H](CO)O2)cc1-c1cn(-c2c(F)cccc2F)nn1 | 6.1 µM | inactive | inactive | 2.9 µM | inactive | inactive | inactive | 1.5 µM | ≥ 10 µM | 31 µM | inactive | 36 µM | 0.51 µM | inactive | inactive | inactive | 3.1 µM | inactive | inactive | 18 µM | EC50 (Vaccinia virus): 38 µM; EC50 (Human alphaherpesvirus 2): ≥ 50 µM; IC50 (CCRF-CEM): 1.5 µM; EC50 (Human betaherpesvirus 5 [12]): 29 µM; inhibition [13]: inactive
O=c1[nH]c(=O)n([C@H]2C[C@H](O)[C@@H](CO)O2)cc1-c1cn(-c2ccc(Cl)cc2)nn1 | 48 µM | inactive | inactive | 14.8 µM | inactive | inactive | inactive | 7.4 µM | > 240 µM | > 240 µM | inactive | > 240 µM | 4 µM | inactive | inactive | inactive | 41 µM | inactive | inactive | > 131 µM | EC50 (Vaccinia virus): > 240 µM; EC50 (Human alphaherpesvirus 2): > 240 µM; IC50 (CCRF-CEM): 13 µM; EC50 (Human betaherpesvirus 5 [12]): > 240 µM; inhibition [13]: inactive
CCCCc1ccc(-n2cc(-c3cn([C@H]4C[C@H](O)[C@@H](CO)O4)c(=O)[nH]c3=O)nn2)cc1 | > 50 µM | inactive | inactive | 15 µM | inactive | inactive | inactive | 147 µM | 230 µM | > 50 µM | inactive | > 50 µM | 23 µM | inactive | inactive | inactive | > 50 µM | inactive | inactive | > 50 µM | EC50 (Vaccinia virus): > 50 µM; EC50 (Human alphaherpesvirus 2): > 50 µM; IC50 (CCRF-CEM): 60 µM; EC50 (Human betaherpesvirus 5 [12]): > 50 µM; inhibition [13]: inactive
O=c1[nH]c(=O)n([C@H]2C[C@H](O)[C@@H](CO)O2)cc1-c1cn(-c2ccc(OC(F)(F)F)cc2)nn1 | > 50 µM | inactive | inactive | 50 µM | inactive | inactive | inactive | 47 µM | > 220 µM | > 50 µM | inactive | > 50 µM | 37 µM | inactive | inactive | inactive | > 50 µM | inactive | inactive | > 220 µM | EC50 (Vaccinia virus): > 50 µM; EC50 (Human alphaherpesvirus 2): > 50 µM; IC50 (CCRF-CEM): 35 µM; EC50 (Human betaherpesvirus 5 [12]): > 220 µM; inhibition [13]: inactive
O=c1[nH]c(=O)n([C@H]2C[C@H](O)[C@@H](CO)O2)cc1-c1cn(-c2ccc([N+](=O)[O-])cc2)nn1 | > 50 µM | inactive | inactive | > 100 µM | inactive | inactive | inactive | 136 µM | 240 µM | > 50 µM | inactive | > 50 µM | > 100 µM | inactive | inactive | inactive | > 50 µM | inactive | inactive | > 50 µM | EC50 (Vaccinia virus): > 50 µM; EC50 (Human alphaherpesvirus 2): > 50 µM; IC50 (CCRF-CEM): > 100 µM; EC50 (Human betaherpesvirus 5 [12]): > 50 µM; inhibition [13]: inactive
